The source of these data is patent US8642774B2, “Compounds” (Boehringer Ingelheim International GmbH, priority 2011, dated 2014).

pEC50: −log10 of the molar value.

For this experiment, the target named is T1, human recombinant mGluR5 (Homo sapiens, UniProt P41594).
T1 construct: expressed in transfected cells; host or cells: HEK 293 cell line, cultured with tetracycline, hygromycin and geneticin; tetracycline is withdrawn 3-7 days before the assay
The experiment in a line: positive modulation of mGluR5, calcium based FLIPR assay. The experiment is classed as cell-based. Particulars: EC50 of the modulation; HEK 293 cell line expressing human recombinant mGluR5; peak height of Ca fluorescence signal after glutamate at approx. 5% basal stimulation; read-out: EC50. Here is the method:
The positive modulation of mGluR5 is measured in a HEK 293 cell line expressing human recombinant mGluR5 and is detected with calcium based FLIPR assay. The cells are cultured with DMEM supplemented with 10% FCS, 2 μg/mL tetracycline, 100 μg/mL hygromycin and 500 μg/mL gneticin. The cell culture media is exchanged for tetracycline-free cell culture media 3-7 days before the assay. One day before the assay the cell culture medium is exchanged to DMEM without glutamine and phenol red and supplemented with 10% FCS, 100 μg/mL hygromycin and 500 μg/mL geneticin. On the assay day, the medium of the subconfluent cultures is removed and the cells are detached by addition of 2.5 ml EDTA (0.02%) per 175 cm2 culture flask for 1 minute. The cells are resuspend in Ringer solution (140 mM NaCl, 5 mM KCl, 2.5 mM CaCl2, 1.5 mM MgCl2, 5 mM Glucose, 10 mM Hepes; adjusted to pH 7.4 with NaOH), pooled and Ringer solution added to adjust the volume to 50 mL. The cell suspension is centrifuged for 5 min at 1500 U/min (425 g). The supernatant is removed and the cells washed a second time with 50 ml fresh Ringer solution and centrifuged again as before. The supernatant is again removed and the pellet resuspended in Ringer solution to 1,000,000 cells/ml (1×10^6 cells/mL). The cells are plated onto BD BioCoat Poly-D-Lysine 384 well plates (20.000 cells/well; 20 μl/well). The lid covered plates are then incubated until use at 37° C./10% CO2. For dye loading, 20 μl of Calcium-4 assay kit solution (prepared according to the manufacturer's description in Ringer solution) are added to the cells and the plates are incubated for 80 min 37° C. and then 10 min at room temperature. • Controls, Compound dilution and assay execution: • Each assay plate contained wells with “high” and “low” controls:
Low controls 1% DMSO/ringer solution+basal glutamate activation (defined as 100% CTL).
High controls 10 μM CDPPB+basal glutamate activation (defined as 200% CTL).
Test compounds are dissolved and diluted in DMSO to 100-fold the desired concentrations. In a second step, the compounds are diluted in Ringer solution such that the compounds are 4-fold more concentrated than the desired final assay concentration. The final DMSO concentration was 1%.
20 μl of each compound solution are then transferred to the assay plate and the Ca2+ kinetic is measured to determine any intrinsic compound activity. After 5 min incubation in the FLIPR device, the second stimulation with 20 μl of glutamate in Ringer solution (glutamate concentration adjusted to approximately 5% basal stimulation of the maximal possible glutamate effect) is added and the kinetic Ca2+ response of the wells was measured for the modulation effect.
The peak height of the Ca release related fluorescence signal (9-66) is used for the EC50. The EC50 of the modulation is calculated over a nonlinear regression with GraphPad Prism (Table 1).

T1 sequence (P41594 21-1212): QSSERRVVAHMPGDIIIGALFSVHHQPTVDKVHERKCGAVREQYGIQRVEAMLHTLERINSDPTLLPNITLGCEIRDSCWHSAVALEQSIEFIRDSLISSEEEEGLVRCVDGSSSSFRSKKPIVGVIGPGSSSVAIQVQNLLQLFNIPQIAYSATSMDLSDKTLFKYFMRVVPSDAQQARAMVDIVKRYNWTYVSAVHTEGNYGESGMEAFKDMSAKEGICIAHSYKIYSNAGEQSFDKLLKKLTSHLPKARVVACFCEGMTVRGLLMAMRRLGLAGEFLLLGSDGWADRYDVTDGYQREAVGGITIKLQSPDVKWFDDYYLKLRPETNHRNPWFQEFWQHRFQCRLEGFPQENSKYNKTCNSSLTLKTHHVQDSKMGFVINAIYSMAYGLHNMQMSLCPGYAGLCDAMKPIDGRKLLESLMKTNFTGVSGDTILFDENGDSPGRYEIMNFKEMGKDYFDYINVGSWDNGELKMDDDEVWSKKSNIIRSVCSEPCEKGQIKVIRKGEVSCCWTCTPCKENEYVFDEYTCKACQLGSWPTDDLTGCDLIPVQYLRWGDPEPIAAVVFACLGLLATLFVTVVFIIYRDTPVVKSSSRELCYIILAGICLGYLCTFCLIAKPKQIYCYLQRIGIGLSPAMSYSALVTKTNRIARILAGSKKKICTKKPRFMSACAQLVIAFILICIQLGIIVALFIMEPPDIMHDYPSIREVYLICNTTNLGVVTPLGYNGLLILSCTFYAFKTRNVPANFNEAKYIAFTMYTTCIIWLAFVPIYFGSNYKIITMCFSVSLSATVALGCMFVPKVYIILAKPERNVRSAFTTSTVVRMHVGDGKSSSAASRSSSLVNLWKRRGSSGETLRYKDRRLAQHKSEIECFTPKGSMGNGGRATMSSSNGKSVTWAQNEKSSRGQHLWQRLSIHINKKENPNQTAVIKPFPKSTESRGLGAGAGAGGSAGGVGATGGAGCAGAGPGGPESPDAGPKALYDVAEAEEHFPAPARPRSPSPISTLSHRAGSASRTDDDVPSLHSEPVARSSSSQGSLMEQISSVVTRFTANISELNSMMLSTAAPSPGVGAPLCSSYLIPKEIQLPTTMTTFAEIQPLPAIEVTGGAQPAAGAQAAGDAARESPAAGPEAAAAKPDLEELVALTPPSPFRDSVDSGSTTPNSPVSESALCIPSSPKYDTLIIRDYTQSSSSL

With `CCCCc1nc(-c2ccc(F)c(C)c2)nn1CC(=O)N1CCN(c2cccc(OC)c2)C(=O)C1` [Example 7.03.100.], the negative logarithm of the EC50 (pEC50) was 6.52.

With `Cc1nc(N2CCN(C(=O)Cn3nc(-c4ccc(OC(F)F)cc4)nc3-c3ccccc3)CC2)no1` [Example 7.03.135], the pEC50 was 7.72. The same measure for `Cc1nc2c(s1)CN(C(=O)Cn1nc(-c3ccc(OC(F)F)cc3)nc1-c1ccccc1)C2` [Example 7.03.128]: 7.07; for `Cc1nc2c(o1)CN(C(=O)Cn1nc(-c3ccc(OC(F)F)cc3)nc1-c1ccccc1)C2` [Example 7.03.129]: 7.57. For the compound `O=C(Cn1nc(-c2ccc(F)cc2)nc1-c1ccc(F)cc1)N1CCC(c2nnco2)CC1` [Example 7.03.034.], the pEC50 is 6.04. Regarding `O=C(Cn1nc(-c2ccc(F)cc2)nc1-c1ccc(F)cc1)N1CCC(c2noc3ccc(F)cc23)CC1` [Example 7.02.28.], the pEC50 was 6.19. For the compound `O=C(Cn1nc(-c2ccc(F)cc2)nc1-c1ccc(F)cc1)N1Cc2cccnc2C1` [Example 7.03.020.], the pEC50 is 6.20.

As to `CNc1nc2c(s1)CCN(C(=O)Cn1nc(-c3ccc(F)cc3)nc1-c1ccc(F)cc1)CC2` [Example 7.04.02.], the pEC50 was 6.88. With `CC1CN(c2ncccn2)CCN1C(=O)Cn1nc(-c2ccc(F)cc2)nc1-c1ccc(F)cc1` (centres unmarked) [Example 7.03.119.], the pEC50 was 6.48.

As for `O=C(Cn1nc(-c2ccc(F)cc2)nc1-c1ccc(F)cc1)N1CCc2nc(C3CCOCC3)sc2CC1` [Example 7.03.031.], the negative-log EC50 (pEC50) was 5.75. As for `Cc1nc2c(o1)CCN(C(=O)Cn1nc(-c3ccc(F)cc3)nc1-c1ccc(F)cc1)CC2` [Example 7.03.122.], the figure is 7.24. On to `Cc1nc2c(s1)CCN(C(=O)Cn1nc(-c3ccc(F)c(C)c3)nc1-c1ccccc1)CC2` [Example 7.03.063.], for which the pEC50 was 7.22. Consider `COc1nc2c(s1)CCN(C(=O)Cn1nc(-c3ccc(F)cc3)nc1-c1ccc(F)cc1)CC2` [Example 7.03.039.], for which the pEC50 is 7.30. For the compound `CC1CN(C(=O)Cn2nc(-c3ccc(F)cc3)nc2-c2ccc(F)cc2)CCN1c1ncccn1` (centres unmarked) [Example 7.03.118.], the negative-log EC50 (pEC50) is 6.68. As for `O=C(Cn1nc(-c2ccc(F)cc2)nc1-c1ccc(F)cc1)N1CCc2nc(N3CCCC3)sc2CC1` [Example 7.04.01., 2-[3,5-bis-(4-Fluoro-phenyl)-(1,2,4)triazol-1-yl)-1-(2-pyrrolidin-1-yl-4,5,7,8-tetrahydro-thiazolo[4,5-d]azepin-6-yl)-ethanone], the figure is 6.17. As for `Cc1cc(-c2nc(-c3ccccc3)n(CC(=O)N3CCc4nc(N)sc4C3)n2)ccc1F` [Example 7.02.78.], the figure is 6.56; as for `COC(=O)c1ccc2c(c1)CCN(C(=O)Cn1nc(-c3ccc(F)c(C)c3)nc1-c1ccccc1)CC2` [Example 7.02.79.], 7.27. The same measure for `O=C(Cn1nc(-c2ccc(F)cc2)nc1-c1ccc(F)cc1)N1CCc2c(F)ccc(F)c2C1` [Example 7.02.27.]: 5.74; for `N#Cc1cccc(N2CCN(C(=O)Cn3nc(-c4ccc(F)cc4)nc3-c3ccc(F)cc3)CC2=O)c1` [Example 7.03.015.]: 6.52; for `O=C(Cn1nc(-c2ccc(F)cc2)nc1-c1ccc(F)cc1)N1CCc2ncsc2CC1` [Example 7.03.011.]: 6.34. Take `COc1ncc2c(n1)CCN(C(=O)Cn1nc(-c3ccc(F)cc3)nc1-c1ccc(F)cc1)C2` [Example 7.02.60.]: the negative-log EC50 (pEC50) is 6.53. In the case of `O=C(Cn1nc(-c2ccc(F)cc2)nc1-c1ccc(F)cc1)N1CCc2cccc(F)c2C1` [Example 7.02.10.], the pEC50 was 6.02. In the case of `Cc1nnc(C2CCN(C(=O)Cn3nc(-c4ccc(F)cc4)nc3-c3ccc(F)cc3)CC2)o1` [Example 7.02.59.], the pEC50 is 6.35. Turning to `O=C(Cn1nc(-c2ccc(F)cc2)nc1-c1ccc(F)cc1)N1Cc2cn[nH]c2C1` [Example 7.02.04.], the negative logarithm of the EC50 (pEC50) was 6.09. As to `COc1ccc(-c2nc(-c3ccc(F)cc3)nn2CC(=O)N2CCc3nc(C)sc3CC2)cc1` [Example 7.03.058.], the pEC50 was 6.93. As to `Cc1nc2c(s1)CCN(C(=O)Cn1nc(-c3ccc(F)c(C)c3)nc1C1CCCC1)CC2` [Example 7.03.107.], the pEC50 was 7.20. Consider `O=C(Cn1nc(-c2ccc(F)cc2)nc1-c1ccc(F)cc1)N1CCN(C2=NCCS2)CC1` [Example 7.03.046.], for which the negative-log EC50 (pEC50) was 6.45.

On to `COc1ccnc(C2=CCN(C(=O)Cn3nc(-c4ccc(F)c(C)c4)nc3C(C)C)CC2)c1` [Example 7.03.079.], for which the pEC50 was 6.26.

As to `COC(=O)c1ccc2c(c1)CCN(C(=O)Cn1nc(-c3ccc(F)cc3)nc1-c1ccc(F)cc1)CC2` [Example 7.02.11.], the pEC50 was 6.42. `COc1cc2c(cc1OC)CCN(C(=O)Cn1nc(-c3ccc(F)c(C)c3)nc1-c1ccccc1)CC2` [Example 7.02.90.]: the negative logarithm of the EC50 (pEC50) is 6.81. The same measure for `COc1cc(C2=CCN(C(=O)Cn3nc(-c4ccc(F)c(C)c4)nc3C(C)C)CC2)ncn1` [Example 7.03.077.]: 6.30; for `O=C(Cn1nc(-c2ccc(F)cc2)nc1-c1ccc(F)cc1)N1CCN(c2cc(F)ccn2)C(=O)C1` [Example 7.03.016.]: 7.00. `O=C(Cn1nc(-c2ccc(F)cc2)nc1-c1ccc(F)cc1)N1CCc2nc(N3CCCCC3)sc2CC1` [Example 7.04.04.]: the pEC50 was 6.25. For `O=C(Cn1nc(-c2ccc(F)cc2)nc1-c1ccc(F)cc1)N1CCN(c2nccs2)C(=O)C1` [Example 7.01.02.], the pEC50 is 6.93. As to `O=C(Cn1nc(-c2ccc(F)cc2)nc1-c1ccc(F)cc1)N1CCc2nc(N3CCOCC3)sc2CC1` [Example 7.04.05.], the pEC50 is 5.78. The same measure for `Cc1nc2c(s1)CCN(C(=O)Cn1nc(-c3ccc(F)c(C)c3)nc1C1CCC(C)CC1)CC2` (centres unmarked) [Example 7.03.090.]: 6.38; for `Nc1ccc2c(c1)CCN(C(=O)Cn1nc(-c3ccc(F)cc3)nc1-c1ccc(F)cc1)CC2` [Example 7.02.26.]: 6.29.

Turning to `O=C(Cn1nc(-c2ccc(F)cc2)nc1-c1ccc(F)cc1)N1CCC(Oc2ccc3c(c2)OCO3)CC1` [Example 7.02.30.], the negative-log EC50 (pEC50) is 6.03. For `COC(=O)c1ccc2c(c1)CCN(C(=O)Cn1nc(-c3ccc(F)cc3)nc1-c1ccc(F)cc1)C2` [Example 7.02.33.], the negative-log EC50 (pEC50) was 6.51. On to `O=C(Cn1nc(-c2ccc(F)cc2)nc1-c1ccc(F)cc1)N1CCc2cc(C(F)(F)F)ccc2C1` [Example 7.02.09.], for which the negative-log EC50 (pEC50) was 6.00. On to `O=C(Cn1nc(-c2ccc(F)cc2)nc1-c1ccc(F)cc1)N1CCC(c2noc3ccccc23)CC1` [Example 7.02.01., 1-(4-Benzo[d]isoxazol-3-yl-piperidin-1-yl)-2-(3,5-bis-(4-fluoro-phenyl)-(1,2,4)triazol-1-yl)-ethanone], for which the negative logarithm of the EC50 (pEC50) is 6.75. The same measure for `CC(C)c1ncc2c(n1)CCN(C(=O)Cn1nc(-c3ccc(F)cc3)nc1-c1ccc(F)cc1)C2` [Example 7.02.32.]: 6.33; for `O=C(Cn1nc(-c2ccc(F)cc2)nc1-c1ccc(F)cc1)N1CCC(c2ccon2)CC1` [Example 7.02.52.]: 6.33; for `O=C(Cn1nc(-c2ccc(F)cc2)nc1-c1ccc(F)cc1)N1CCN(c2ncnc3ccccc23)CC1` [07.03.141^]: 5.95. The same measure for `O=C(Cn1nc(-c2ccc(F)cc2)nc1-c1ccc(F)cc1)N1CCC(c2ccccn2)CC1` [Example 7.03.027.]: 6.13; for `Cc1cc(-c2nc(C(C)C)n(CC(=O)N3CC=C(c4ccccn4)CC3)n2)ccc1F` [Example 7.03.075.]: 5.96; for `O=C(Cn1nc(-c2ccc(F)cc2)nc1-c1ccc(F)cc1)N1CCN(c2nccs2)CC1` [Example 7.03.048.]: 7.06.

As to `Nc1nc2c(o1)CCN(C(=O)Cn1nc(-c3ccc(F)cc3)nc1-c1ccc(F)cc1)CC2` [Example 7.03.019.], the negative logarithm of the EC50 (pEC50) is 6.36.

As to `COc1cc(C2CCN(C(=O)Cn3nc(-c4ccc(F)cc4)nc3-c3ccc(F)cc3)CC2)ncn1` [Example 7.03.026.], the negative logarithm of the EC50 (pEC50) is 6.01.

On to `COc1ccc(-c2nc(-c3ccc(F)cc3)nn2CC(=O)N2CCc3nc(N)sc3CC2)cc1` [Example 7.03.057.], for which the pEC50 was 6.73.

One may read the pEC50 as −log10 of the EC50, conventionally taken in molar units.
